# Literature values, collected in patent publication US20160158308A1 (priority 2013, published 2016).
# Read-outs that look alike come from different tables or passages of the source.
# Legend:
# [1] = tested on: Mycobacterium tuberculosis; settings: NAC at 10 millimolar
# [2] = rat liver, CO-60, water control = 0% removal
Compound,M. tuberculosis CFU/ml [1],removal of the toxin [2] [%],removal of the toxin ([2]; listed as Intravenous glutathione) [%]
"CC(=O)N[C@@H](CS)C(=O)O [NAC, N-acetyl cysteine]","8,000 CFU/ml",,
"N[C@@H](CCC(=O)N[C@@H](CS)C(=O)NCC(=O)O)C(=O)O [Plain glutathione, glutathione]",,0,64
